This is an account of results in US20190119282A1, “IMIDAZOPYRIDAZINES USEFUL AS INHIBITORS OF THE PAR-2 SIGNALING PATHWAY” (Vertex Pharmaceuticals Incorporated, priority 2013, published 2019).

In data set [1] the target is T1, PAR2 (HT-29 cells, SLIGKV activation) (Homo sapiens, UniProt P55085).
T1 construct: host or cells: HT-29 cells
T1 sequence (P55085 26-397): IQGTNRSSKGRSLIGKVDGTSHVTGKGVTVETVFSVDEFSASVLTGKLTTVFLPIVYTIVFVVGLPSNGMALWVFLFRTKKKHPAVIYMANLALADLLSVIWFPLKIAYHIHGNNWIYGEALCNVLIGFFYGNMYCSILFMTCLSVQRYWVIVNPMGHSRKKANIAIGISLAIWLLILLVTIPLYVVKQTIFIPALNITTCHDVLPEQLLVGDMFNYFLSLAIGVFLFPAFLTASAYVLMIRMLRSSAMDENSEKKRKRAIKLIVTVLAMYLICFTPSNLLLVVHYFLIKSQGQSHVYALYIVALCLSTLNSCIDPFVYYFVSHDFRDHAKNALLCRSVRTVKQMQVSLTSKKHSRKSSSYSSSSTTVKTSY
Put plainly: Ca FLIPR TETRA assay, ANTAGONIST mode, stimulation with 8 μM SLIGKV. The data set is classed as cell-based. The conditions noted are these: HT-29 cells, antagonist mode, stimulation with 8 μM SLIGKV. In short, it runs like this:
(§1)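 Intracellular calcium is measured by fluorescence in HT-29 cells loaded with calcium 5 reagent. Compounds sit on the cells 30 min at room temperature before challenge with trypsin (3.1 U/mL) or SLIGKV (8 μM) for PAR2, or with thrombin (1 U/mL) or UTP (0.6 μM) as counter-stimuli.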

Data set [2] deals with Thrombin-stimulated Ca2+ response in HT-29 cells. Put plainly: Ca FLIPR TETRA assay, ANTAGONIST mode, stimulation with 1 U/mL Thrombin. The following applies: Homo sapiens; HT-29 cells, antagonist mode, stimulation with 1 U/mL Thrombin. The data set is classed as cell-based, human. In short, it runs like this:
as §1

Data set [3] deals with UTP-stimulated Ca2+ response in HT-29 cells. Put plainly: Ca FLIPR TETRA assay, ANTAGONIST mode, stimulation with 0.6 μM UTP. The data set is classed as cell-based, human. The conditions noted are these: Homo sapiens; HT-29 cells, antagonist mode, stimulation with 0.6 μM UTP. Summed up: as §1
Data set [4] can be described thus: In vivo rat pharmacokinetics (intravenous and oral). The conditions noted are these: plasma. In short, it runs like this:
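Rats dosed by tail-vein bolus at 0.5–1 mg/kg in NMP-based solutions, or by oral gavage at 1–600 mg/kg as solution, suspension or spray-dried dispersion. Jugular blood in K3EDTA gave plasma or citrate-diluted whole blood; LC-MS/MS quantification, non-compartmental PK analysis.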

The next data set concerns TNBS-induced colitis. Put plainly: Mouse TNBS-induced colitis model. The following applies: mice. The data set is classed as in vivo, BALB/c mice. The method, then: Male Sprague Dawley rats and BALB/c mice were housed in groups in a temperature controlled room and were acclimatized in the animal facility for at least three days prior to use. Experiments were performed during the light phase of the cycle. Animals have food and water ad libitum.
Example 65: Mouse TNBS-Induced Colitis Model
Colitis was induced by intra-colonic administration of 1.5 mg of TNBS in 75 μl of 40% v/volume ethanol solution under isoflurane anesthesia at a depth of 4 cm from the anal verge. Mice were kept with their heads down for 30 additional seconds post administration to ensure distribution of TNBS. Disease activity scores were assessed for a period of 5 days starting prior to TNBS injection (baseline reading). […] Test compounds or vehicle (0.5% MC/0.1% SDS) were systemically administered at the indicated doses in a volume of 10 mL/kg each day for 5 days and starting 1 day before TNBS.
Data are expressed as the mean % effect. Statistical significance was assessed using t-test for comparison between naive and inflamed rats, and one-way ANOVA followed by post-hoc comparison test for overall drug effectiveness. A difference between groups is considered significant with a p value of <0.05. *, p<0.05; **, p<0.01; ***, p<0.001 vs. vehicle.

Each structure is given as a SMILES string. Marks after values point to notes of the source that are not given here.

Take `Cc1nc(C(=O)N2CCN(C(=O)c3cn4nc(-c5ccc(F)cc5)cc(C(C)(C)C)c4n3)C(C)(C)C2)n[nH]1` [Compound I-343, (8-(tert-butyl)-6-(4-fluorophenyl)imidazo[1,2-b]pyridazin-2-yl)(2,2-dimethyl-4-(5-methyl-1H-1,2,4-triazole-3-carbonyl)piperazin-1-yl)methanone]: the IC50 was 0.0005 µM in data set [1], 1.11 µM in data set [2] and 1.03 µM in data set [3]. Moreover, the clearance in data set [4] (intravenous 0.5 to 1 mg/kg, read-out: Clp) is 3.39 mL/min/kg. Besides, the Vd in data set [4] (intravenous, read-out: Vss) was determined as 1.65 L/kg. In data set [4] (oral by gavage), the bioavailability was 62%. The half-life in data set [4] (read-out: T ½ (converted)) was 7.03 h. For the same molecule, the “% improvement in Disease activity scores” value was 24% with TNBS-induced colitis (dose 15 mg/kg each day for 5 days starting 1 day before TNBS), 33* % in the data set on TNBS-induced colitis (dose 50 mg/kg each day for 5 days starting 1 day before TNBS) and 62*** % in the data set with TNBS-induced colitis (dose 150 mg/kg each day for 5 days starting 1 day before TNBS).
